# Results published in ChEMBL document CHEMBL1201862, “PubChem BioAssay data set” (2004).
# Calls of active or inactive are those of the source.
# Experiments:
# [1] = target: Tyrosine-protein kinase receptor TYRO3 (Homo sapiens, UniProt Q06418); assay type: functional;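 also: TYRO3 value obtained as one member of a kinome-wide profiling panel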
# [2] = target: Serine/threonine-protein kinase D3 (Homo sapiens, UniProt O94806); assay type: functional;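 also: determined within a kinase panel screen, with PRKCN as the panel member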
# Aurora kinase A = Aurora kinase A (Homo sapiens, UniProt O14965); assay type: functional;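 also: value from the Navigating the Kinome kinase panel profiling, panel entry STK6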
# [3] = target: Serine/threonine-protein kinase PAK 4 (Homo sapiens, UniProt O96013); assay type: functional;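 also: value obtained within a kinome profiling panel in which PAK4 was one of the panel members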
# [4] = target: Fibroblast growth factor receptor 1 (Homo sapiens, UniProt P11362); assay type: functional
# [5] = target: Tyrosine-protein kinase JAK3 (Homo sapiens, UniProt P52333); assay type: functional
# [6] = target: High affinity nerve growth factor receptor (Homo sapiens, UniProt P04629); assay type: functional;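 also: NTRK1 tested as one member of a kinome-wide profiling panel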
# [7] = target: Glycogen synthase kinase-3 alpha (Homo sapiens, UniProt P49840); assay type: functional;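 also: GSK3A result taken from a broad kinome-wide kinase panel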
# [8] = target: Mitogen-activated protein kinase kinase kinase kinase 2 (Homo sapiens, UniProt Q12851); assay type: functional;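 also: measured as one member of a kinome-wide kinase panel, with MAP4K2 as the panel entry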
# [9] = target: cAMP-dependent protein kinase catalytic subunit PRKX (Homo sapiens, UniProt P51817); assay type: functional
# [10] = target: Cyclin-dependent kinase 8 (Homo sapiens, UniProt P49336); assay: Navigating the Kinome. Panel member name: CDK8; assay type: functional
# [11] = target: Cyclin-dependent kinase 7 (Homo sapiens, UniProt P50613); assay type: functional;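 also: value comes from a kinome-wide kinase profiling panel in which CDK7 is one member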
# [12] = target: Vascular endothelial growth factor receptor 1 (Homo sapiens, UniProt P17948); assay type: functional;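 also: measured within a kinome-wide profiling panel, FLT1 as the panel member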
# [13] = target: BDNF/NT-3 growth factors receptor (Homo sapiens, UniProt Q16620); assay type: functional;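 also: NTRK2 measured as one member of a broad kinome-wide kinase profiling panel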
# [14] = target: cAMP-dependent protein kinase catalytic subunit alpha (Homo sapiens, UniProt P17612); assay type: functional
# Streptokinase A = target: T1, Streptokinase A (Streptococcus pyogenes serotype M1, UniProt P10520); assay: S. pyogenes streptokinase expression inhibitors, potency, dose response, plasminogen activation absorbance, OD405 (AID 1914); assay type: functional, Streptococcus pyogenes M1 GAS;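 also: secreted streptokinase activity via plasminogen activation per viability signal from cell pellet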
# T1 sequence (P10520 whole entry): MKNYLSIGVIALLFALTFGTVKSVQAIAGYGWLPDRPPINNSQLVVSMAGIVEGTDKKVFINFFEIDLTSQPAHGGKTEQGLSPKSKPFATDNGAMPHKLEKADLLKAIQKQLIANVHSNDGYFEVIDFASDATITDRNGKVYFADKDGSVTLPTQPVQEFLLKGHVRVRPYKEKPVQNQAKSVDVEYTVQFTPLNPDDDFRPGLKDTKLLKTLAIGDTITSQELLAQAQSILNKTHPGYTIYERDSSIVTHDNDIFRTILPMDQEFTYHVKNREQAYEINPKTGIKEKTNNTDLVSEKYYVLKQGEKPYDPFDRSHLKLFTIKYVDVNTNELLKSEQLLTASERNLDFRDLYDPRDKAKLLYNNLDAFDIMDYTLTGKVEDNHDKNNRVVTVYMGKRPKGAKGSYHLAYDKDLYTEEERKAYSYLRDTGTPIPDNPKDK
# Streptococcus = assay: Group A Streptococcus viability loss, dose response, counter-screen for streptokinase expression inhibitor project, luminescence, BacTiterGlo (AID 1915); assay type: functional, organism-based;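 also: potency for reduction of bacterial viability or growth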
# Insulin-degrading enzyme [15] = target: T2, Insulin-degrading enzyme (Homo sapiens, UniProt P14735); assay: activators of recombinant IDE enzyme, dose response, counter-screen for IDE activator project, biochemical, fluorescence polarization (AID 588681)
# T2 sequence (P14735 whole entry): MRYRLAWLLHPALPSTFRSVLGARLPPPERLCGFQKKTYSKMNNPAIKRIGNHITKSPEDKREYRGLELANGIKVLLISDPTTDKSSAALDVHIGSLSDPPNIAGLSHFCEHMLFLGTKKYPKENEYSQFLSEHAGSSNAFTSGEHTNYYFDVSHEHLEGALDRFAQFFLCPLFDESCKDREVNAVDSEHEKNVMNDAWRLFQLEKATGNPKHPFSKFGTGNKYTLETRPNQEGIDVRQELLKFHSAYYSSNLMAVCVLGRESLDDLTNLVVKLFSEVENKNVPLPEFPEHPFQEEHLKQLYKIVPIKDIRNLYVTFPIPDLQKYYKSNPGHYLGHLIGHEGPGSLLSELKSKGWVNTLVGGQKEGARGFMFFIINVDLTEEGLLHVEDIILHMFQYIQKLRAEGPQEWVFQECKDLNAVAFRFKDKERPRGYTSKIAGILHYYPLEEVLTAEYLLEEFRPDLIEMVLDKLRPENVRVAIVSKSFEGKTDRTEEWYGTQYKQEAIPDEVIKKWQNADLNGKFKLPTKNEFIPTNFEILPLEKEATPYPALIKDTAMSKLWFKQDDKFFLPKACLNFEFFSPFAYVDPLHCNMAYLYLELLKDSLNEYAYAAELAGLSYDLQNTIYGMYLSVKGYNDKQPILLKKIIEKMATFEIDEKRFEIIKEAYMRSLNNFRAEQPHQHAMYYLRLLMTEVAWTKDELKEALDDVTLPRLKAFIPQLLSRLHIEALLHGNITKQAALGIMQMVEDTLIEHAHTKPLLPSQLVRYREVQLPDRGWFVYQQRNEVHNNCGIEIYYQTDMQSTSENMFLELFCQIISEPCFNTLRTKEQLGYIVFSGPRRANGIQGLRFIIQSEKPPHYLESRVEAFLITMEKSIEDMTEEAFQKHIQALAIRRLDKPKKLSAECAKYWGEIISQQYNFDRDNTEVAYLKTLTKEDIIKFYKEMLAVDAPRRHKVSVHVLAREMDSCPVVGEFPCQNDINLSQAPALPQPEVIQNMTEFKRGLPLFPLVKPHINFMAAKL
# Insulin-degrading enzyme [16] = target: T2, Insulin-degrading enzyme; assay: activators of endogenous IDE in HEK cells, dose response, cell-based, fluorescence polarization (AID 588439); assay type: functional
# INS1 = assay: beta cell apoptosis inhibitors, cytokine rescue, dose response, luminescence, retest (AID 449756); assay type: functional, cell-based; conditions: Rattus norvegicus;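 also: cell death triggered by IL-1 beta plus TNF-alpha plus IFN-gamma mixture; protective hits raise ATP signal compared with cytokine alone wells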
# [17] = luciferase reporter signal reduction – luminescence, H4-C neuroglioblastoma cells, dose response (AID 2458); assay type: functional, cell-based;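 also: H4 neuroglioblastoma cells stably carrying a luciferase reporter gene fusion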
# [18] = inhibitors of SNCA 5'UTR-driven reporter translation, confirmation, H4 neuroglioma cells, luminescence (AID 1988); assay type: functional, cell-based
# [19] = inhibitors of clade B AD8 Env fusion, dose response, cell-based, cherry-pick (AID 652062); assay type: functional;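 also: luciferase signal from cell-cell fusion driven by HIV-1 clade B AD8 Env; potency is for inhibitors of fusion seen as a drop in luminescence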
# cells = assay type: functional, cell-based
# [20] = target: Intestinal-type alkaline phosphatase (Homo sapiens, UniProt P09923); assay: human IAP activators, dose response, biochemical, luminescent, uHTS hits, set 2 (AID 488817); assay type: functional;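 also: potency of activators that raise enzyme activity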
# Sequence of Serine/threonine-protein kinase D3 (O94806 whole entry): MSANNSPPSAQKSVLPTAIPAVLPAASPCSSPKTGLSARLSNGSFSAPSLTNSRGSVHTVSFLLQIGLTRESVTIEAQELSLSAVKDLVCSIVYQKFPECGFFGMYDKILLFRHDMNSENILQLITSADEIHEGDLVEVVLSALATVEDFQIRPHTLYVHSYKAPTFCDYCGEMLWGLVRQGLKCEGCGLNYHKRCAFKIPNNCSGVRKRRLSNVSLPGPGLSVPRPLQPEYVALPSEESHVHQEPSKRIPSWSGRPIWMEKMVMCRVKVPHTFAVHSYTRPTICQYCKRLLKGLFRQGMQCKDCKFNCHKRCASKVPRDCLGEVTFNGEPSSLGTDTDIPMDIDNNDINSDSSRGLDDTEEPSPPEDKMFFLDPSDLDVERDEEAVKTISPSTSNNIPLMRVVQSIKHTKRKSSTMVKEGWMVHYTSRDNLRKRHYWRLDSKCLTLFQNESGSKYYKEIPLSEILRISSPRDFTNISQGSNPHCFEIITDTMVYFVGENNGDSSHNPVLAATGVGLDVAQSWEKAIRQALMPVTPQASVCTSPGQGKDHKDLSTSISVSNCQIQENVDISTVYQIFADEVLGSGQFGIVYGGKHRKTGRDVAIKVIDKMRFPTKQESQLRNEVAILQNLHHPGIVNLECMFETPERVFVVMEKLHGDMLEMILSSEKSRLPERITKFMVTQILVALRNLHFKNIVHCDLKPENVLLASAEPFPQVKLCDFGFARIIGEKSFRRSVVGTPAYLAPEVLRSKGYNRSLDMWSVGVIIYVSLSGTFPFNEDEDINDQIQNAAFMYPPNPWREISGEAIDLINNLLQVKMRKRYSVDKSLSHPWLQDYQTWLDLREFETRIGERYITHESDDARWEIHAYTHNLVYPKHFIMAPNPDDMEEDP
# Sequence of Aurora kinase A (O14965 whole entry): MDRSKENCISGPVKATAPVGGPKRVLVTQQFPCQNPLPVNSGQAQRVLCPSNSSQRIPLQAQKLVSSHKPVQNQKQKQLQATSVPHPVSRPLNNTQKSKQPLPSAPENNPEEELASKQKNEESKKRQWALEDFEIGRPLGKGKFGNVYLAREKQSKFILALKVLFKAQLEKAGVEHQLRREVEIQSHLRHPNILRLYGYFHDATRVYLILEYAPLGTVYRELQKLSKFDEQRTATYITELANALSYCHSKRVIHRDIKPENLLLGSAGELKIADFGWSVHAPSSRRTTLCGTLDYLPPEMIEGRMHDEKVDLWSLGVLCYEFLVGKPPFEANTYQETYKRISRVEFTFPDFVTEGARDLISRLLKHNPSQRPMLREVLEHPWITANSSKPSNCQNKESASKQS
# Sequence of Cyclin-dependent kinase 7 (P50613 whole entry): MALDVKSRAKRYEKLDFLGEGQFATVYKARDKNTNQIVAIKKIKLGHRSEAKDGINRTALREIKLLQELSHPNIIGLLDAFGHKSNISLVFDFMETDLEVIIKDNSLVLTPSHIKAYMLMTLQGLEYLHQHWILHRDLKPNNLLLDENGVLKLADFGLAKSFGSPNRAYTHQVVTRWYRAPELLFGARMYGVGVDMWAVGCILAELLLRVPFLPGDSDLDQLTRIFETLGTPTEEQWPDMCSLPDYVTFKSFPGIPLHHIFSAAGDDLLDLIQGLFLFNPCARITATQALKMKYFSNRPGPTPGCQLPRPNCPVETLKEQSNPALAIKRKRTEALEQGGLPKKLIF
# Sequence of Vascular endothelial growth factor receptor 1 (P17948 whole entry): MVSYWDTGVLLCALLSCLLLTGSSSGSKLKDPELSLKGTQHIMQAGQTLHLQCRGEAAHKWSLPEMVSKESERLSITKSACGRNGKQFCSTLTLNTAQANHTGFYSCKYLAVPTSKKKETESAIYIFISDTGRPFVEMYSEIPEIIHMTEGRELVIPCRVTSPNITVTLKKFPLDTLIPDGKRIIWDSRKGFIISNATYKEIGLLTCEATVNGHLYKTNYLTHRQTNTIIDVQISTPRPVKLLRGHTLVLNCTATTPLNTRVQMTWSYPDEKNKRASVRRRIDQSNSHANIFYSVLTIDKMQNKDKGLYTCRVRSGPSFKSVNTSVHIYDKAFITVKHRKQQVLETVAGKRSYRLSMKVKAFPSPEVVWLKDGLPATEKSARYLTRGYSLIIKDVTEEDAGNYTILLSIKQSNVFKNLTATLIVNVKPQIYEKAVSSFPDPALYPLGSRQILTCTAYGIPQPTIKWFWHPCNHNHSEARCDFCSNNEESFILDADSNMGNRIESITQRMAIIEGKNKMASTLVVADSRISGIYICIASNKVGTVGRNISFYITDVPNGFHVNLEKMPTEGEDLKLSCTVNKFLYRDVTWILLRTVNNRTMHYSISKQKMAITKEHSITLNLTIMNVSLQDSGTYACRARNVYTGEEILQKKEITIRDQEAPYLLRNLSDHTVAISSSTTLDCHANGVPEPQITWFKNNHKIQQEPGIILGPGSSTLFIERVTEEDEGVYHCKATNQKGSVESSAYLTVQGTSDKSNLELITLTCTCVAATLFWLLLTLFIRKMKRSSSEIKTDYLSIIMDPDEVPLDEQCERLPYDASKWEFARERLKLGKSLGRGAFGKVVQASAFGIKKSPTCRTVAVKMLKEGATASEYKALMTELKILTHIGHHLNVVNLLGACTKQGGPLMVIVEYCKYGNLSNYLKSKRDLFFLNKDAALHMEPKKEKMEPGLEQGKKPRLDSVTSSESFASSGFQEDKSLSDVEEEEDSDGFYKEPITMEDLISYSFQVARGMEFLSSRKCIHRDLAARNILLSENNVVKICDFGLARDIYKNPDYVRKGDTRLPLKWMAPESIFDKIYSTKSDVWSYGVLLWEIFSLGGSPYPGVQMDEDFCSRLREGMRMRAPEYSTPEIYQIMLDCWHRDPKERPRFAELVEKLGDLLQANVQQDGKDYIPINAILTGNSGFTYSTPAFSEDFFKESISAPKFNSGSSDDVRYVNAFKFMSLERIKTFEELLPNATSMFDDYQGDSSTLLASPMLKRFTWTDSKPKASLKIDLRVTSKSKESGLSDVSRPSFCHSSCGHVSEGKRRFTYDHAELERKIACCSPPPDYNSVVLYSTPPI
# Sequence of Serine/threonine-protein kinase PAK 4 (O96013 whole entry): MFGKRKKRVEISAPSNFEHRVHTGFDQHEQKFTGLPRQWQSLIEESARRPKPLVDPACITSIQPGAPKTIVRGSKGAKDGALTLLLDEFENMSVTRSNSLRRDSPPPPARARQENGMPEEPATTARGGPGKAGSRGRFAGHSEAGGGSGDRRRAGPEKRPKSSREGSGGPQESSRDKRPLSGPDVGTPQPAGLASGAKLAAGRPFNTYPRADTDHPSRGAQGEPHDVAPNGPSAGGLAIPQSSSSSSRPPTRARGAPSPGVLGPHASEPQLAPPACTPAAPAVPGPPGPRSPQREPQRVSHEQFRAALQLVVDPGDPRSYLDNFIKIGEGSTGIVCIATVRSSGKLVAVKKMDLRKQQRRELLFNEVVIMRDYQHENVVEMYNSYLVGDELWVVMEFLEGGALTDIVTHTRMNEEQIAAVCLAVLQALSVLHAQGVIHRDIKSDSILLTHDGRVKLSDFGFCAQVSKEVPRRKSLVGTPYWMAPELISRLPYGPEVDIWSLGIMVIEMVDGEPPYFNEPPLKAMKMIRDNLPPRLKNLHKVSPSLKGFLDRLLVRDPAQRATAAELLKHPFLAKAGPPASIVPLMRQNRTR
# Sequence of Mitogen-activated protein kinase kinase kinase kinase 2 (Q12851 whole entry): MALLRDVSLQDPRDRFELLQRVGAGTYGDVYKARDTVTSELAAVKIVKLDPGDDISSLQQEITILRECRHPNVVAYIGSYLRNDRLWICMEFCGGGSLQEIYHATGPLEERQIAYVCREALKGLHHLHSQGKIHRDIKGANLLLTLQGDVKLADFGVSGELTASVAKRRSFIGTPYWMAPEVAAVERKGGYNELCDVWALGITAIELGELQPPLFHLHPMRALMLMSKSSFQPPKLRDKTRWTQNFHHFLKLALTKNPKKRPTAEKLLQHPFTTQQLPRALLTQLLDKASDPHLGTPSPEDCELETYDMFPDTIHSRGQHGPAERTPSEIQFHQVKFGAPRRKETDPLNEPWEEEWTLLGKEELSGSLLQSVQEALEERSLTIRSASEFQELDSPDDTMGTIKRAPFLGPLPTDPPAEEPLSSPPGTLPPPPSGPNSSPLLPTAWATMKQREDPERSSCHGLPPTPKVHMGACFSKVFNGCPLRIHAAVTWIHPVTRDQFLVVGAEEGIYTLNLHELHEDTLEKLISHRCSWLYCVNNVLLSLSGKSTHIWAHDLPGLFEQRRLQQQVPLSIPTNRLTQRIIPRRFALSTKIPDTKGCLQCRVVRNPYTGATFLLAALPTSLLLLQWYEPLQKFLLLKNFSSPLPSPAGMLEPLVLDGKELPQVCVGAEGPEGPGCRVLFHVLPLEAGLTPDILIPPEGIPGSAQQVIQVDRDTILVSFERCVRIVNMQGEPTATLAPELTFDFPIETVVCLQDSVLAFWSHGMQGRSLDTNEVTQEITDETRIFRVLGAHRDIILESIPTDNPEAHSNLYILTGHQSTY
# Sequence of Cyclin-dependent kinase 8 (P49336 whole entry): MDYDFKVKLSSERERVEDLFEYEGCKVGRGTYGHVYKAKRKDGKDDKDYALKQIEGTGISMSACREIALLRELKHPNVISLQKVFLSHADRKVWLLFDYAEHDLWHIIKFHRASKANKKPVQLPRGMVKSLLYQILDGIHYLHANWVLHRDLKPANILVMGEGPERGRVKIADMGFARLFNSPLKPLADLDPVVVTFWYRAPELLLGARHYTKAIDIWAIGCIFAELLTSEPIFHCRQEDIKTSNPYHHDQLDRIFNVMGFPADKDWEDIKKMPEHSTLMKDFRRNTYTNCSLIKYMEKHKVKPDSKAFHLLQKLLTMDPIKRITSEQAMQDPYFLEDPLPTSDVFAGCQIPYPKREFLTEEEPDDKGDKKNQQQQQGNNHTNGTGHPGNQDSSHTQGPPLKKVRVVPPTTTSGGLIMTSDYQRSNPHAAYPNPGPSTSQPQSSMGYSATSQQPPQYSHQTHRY
Structure (SMILES),Ki [1],Ki [2],Ki (Aurora kinase A),Ki [3],Ki [4],Ki [5],Ki [6],Ki [7],Ki [8],Ki [9],Ki [10],Ki [11],Ki [12],Ki [13],Ki [14],EC50 (Streptokinase A),EC50 (Streptococcus),AC50 (INS1),also measured
O=C(Nc1cc(-c2c[nH]c3ncccc23)cc(Cl)n1)c1ccccc1,> 3.16 µM (inactive),> 3.98 µM (inactive),> 1.58 µM (inactive),> 5.01 µM (inactive),> 3.98 µM (inactive),> 5.01 µM (inactive),> 3.16 µM (inactive),> 3.98 µM (inactive),> 2.51 µM (inactive),> 3.16 µM (inactive),0.0794 µM (active),> 3.98 µM (inactive),> 3.98 µM (inactive),> 3.98 µM (inactive),> 2.51 µM (inactive),–,–,–,–
CNC[C@H](Cc1ccccc1)NC[C@@H](Cc1cccc2ccccc12)NCCc1ccc(C)cc1,–,–,–,–,–,–,–,–,–,–,–,–,–,–,–,> 150 µM (not active),7.51 µM (active),7.38 µM (active),EC50 (Insulin-degrading enzyme [15]): > 54.7 µM (inactive); EC50 (Insulin-degrading enzyme [16]): 7.52 µM (active)
Nc1c(-c2ccc(NC(=O)Nc3cccc(C(F)(F)F)c3)cc2)cnc2c(-c3ccc4c(c3)OCO4)cnn12,1.26 µM (active),> 3.98 µM (inactive),> 1.58 µM (inactive),> 5.01 µM (inactive),> 3.98 µM (inactive),> 5.01 µM (inactive),0.1 µM (active),> 3.98 µM (inactive),> 2.51 µM (inactive),> 3.16 µM (inactive),0.0251 µM (active),> 3.98 µM (inactive),0.251 µM (active),0.0126 µM (active),> 1.26 µM (inactive),–,–,–,–
CCN1C(=Cc2sc3ccccc3[n+]2C)C=Cc2cccc(C)c21,–,–,–,–,–,–,–,–,–,–,–,–,–,–,–,> 150 µM (not active),8.99 µM (active),–,EC50 [17]: 3.14 µM (active); EC50 [18]: < 0.1 µM (active); AC50 [19]: 1.05 µM (active)
O=C(N/N=C/c1c(O)ccc2ccccc12)c1[nH]ncc1Br,–,–,–,–,–,–,–,–,–,–,–,–,–,–,–,–,–,0.558 µM (active),EC50 (cells): 7.76 µM (active); EC50 [20]: 11.7 µM (active)
